{"source": "patent US7459466B2", "about": "“Substituted 2-(2,6-dioxopiperidin-3-yl)-phthalimides and -1-oxoisoindolines and method of reducing TNFα levels” (Celgene Corporation, priority 1997, dated 2008)", "data": [{"smiles": "CC1(N2C(=O)c3cccc(N)c3C2=O)CCC(=O)NC1=O", "note": "(stereo not shown) [Example 7, 3-(3-Aminophthalimido)-3-methyl-piperidine-2,6-dione]", "values": [{"measurement": "melting point", "result": "268 to 269", "unit": "°C"}]}]}
